Source: patent US8791132B2, “Compounds and methods for treatment of hypertension” (Medivation Technologies, Inc., priority 2011, dated 2014)

How the values were obtained:
[1] = biological target: T1, human recombinant adrenergic α2A receptor (Homo sapiens, UniProt P08913); test: Radioligand binding, adrenergic α2A ([3H]MK-912); details: compound at 0.1 μM, [3H]MK-912, repeat assays, each datapoint shown; for Percentage inhibition of ligand binding, Adrenergic α2A: 0.1 µM; for inhibition at 0.1 µM: read-out: Percentage inhibition of ligand binding, Adrenergic α2A
T1 construct: expressed in transfected cells; host or cells: insect Sf9 cells
T1 sequence (P08913 1-465): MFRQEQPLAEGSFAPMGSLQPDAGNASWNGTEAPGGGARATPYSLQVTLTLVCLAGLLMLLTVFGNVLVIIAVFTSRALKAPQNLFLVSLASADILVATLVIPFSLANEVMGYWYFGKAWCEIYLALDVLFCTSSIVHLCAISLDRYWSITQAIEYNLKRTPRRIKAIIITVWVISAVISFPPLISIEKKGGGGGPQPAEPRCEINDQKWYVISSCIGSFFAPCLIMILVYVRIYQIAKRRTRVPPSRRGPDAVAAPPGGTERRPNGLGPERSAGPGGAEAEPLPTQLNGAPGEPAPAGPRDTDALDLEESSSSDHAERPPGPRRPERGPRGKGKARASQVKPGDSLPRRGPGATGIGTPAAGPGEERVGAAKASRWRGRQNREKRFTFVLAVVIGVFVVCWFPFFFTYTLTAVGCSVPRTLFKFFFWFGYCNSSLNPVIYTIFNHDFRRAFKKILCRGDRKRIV
In short: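 Displacement of 1 nM [3H]MK-912 from receptor produced in insect Sf9 cells was measured after 60 min at 25 °C. Readout: percent inhibition of specific binding.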

[2] = biological target: T2, human recombinant adrenergic α2B receptor (Homo sapiens, UniProt P18089); test: Radioligand binding, adrenergic α2B ([3H]Rauwolscine); details: compound at 0.03 μM, [3H]Rauwolscine, repeat assays, each datapoint shown; for Percentage inhibition of ligand binding, Adrenergic α2B: 0.03 µM; for inhibition at 0.03 µM: read-out: Percentage inhibition of ligand binding, Adrenergic α2B
T2 construct: expressed in transfected cells; host or cells: CHO-K1
T2 sequence (P18089 1-450): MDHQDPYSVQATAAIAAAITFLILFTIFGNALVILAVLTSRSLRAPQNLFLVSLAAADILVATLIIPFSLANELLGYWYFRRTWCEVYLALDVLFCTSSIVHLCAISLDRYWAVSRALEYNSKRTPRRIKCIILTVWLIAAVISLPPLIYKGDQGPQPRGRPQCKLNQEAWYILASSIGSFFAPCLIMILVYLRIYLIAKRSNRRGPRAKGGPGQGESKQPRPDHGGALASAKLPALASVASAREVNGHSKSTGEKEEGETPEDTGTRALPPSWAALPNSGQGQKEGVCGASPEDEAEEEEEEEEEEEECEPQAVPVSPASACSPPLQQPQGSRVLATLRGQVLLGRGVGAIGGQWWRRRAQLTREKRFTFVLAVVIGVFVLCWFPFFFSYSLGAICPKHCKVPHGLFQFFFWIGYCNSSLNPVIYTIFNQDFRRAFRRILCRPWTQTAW
In short: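 Readout: percent inhibition of specific [3H]Rauwolscine binding, measured by filtration and counting. Conditions: CHO-K1 cell-expressed receptor, 2.5 nM radioligand, 60 min, 25° C, Tris-HCl pH 7.4 buffer with MgCl2, EDTA, BSA. Non-specific binding: 10 μM Prazosin.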

[3] = biological target: T3, rat adrenergic α1B receptor (Rattus norvegicus, UniProt P15823); test: Radioligand binding, adrenergic α1B ([3H]Prazosin); details: compound at 0.1 μM, [3H]Prazosin, repeat assays, each datapoint shown; for Percentage inhibition of ligand binding, Adrenergic α1B: 0.1 µM; for inhibition at 0.1 µM: read-out: Percentage inhibition of ligand binding, Adrenergic α1B
T3 construct: rat adrenergic α1B receptor obtained from Wistar Rat liver; from tissue; host or cells: Wistar rat liver
T3 sequence (P15823 1-515): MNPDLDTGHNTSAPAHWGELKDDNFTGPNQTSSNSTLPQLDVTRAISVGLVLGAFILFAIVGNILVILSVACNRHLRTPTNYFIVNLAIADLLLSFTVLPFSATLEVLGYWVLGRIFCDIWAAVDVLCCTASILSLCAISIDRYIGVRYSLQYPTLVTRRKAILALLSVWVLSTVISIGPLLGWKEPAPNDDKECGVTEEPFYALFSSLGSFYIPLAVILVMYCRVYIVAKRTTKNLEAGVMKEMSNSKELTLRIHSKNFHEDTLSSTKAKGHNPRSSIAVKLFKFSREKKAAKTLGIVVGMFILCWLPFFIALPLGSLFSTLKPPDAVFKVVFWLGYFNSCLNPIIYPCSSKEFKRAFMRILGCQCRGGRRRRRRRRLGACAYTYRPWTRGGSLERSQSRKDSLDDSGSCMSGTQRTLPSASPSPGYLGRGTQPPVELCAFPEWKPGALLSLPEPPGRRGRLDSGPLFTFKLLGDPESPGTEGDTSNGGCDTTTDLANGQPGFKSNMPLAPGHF
In short: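 Specific binding, taken as total minus that remaining with 10 μM phentolamine, is measured after filtration and counting. Rat liver receptor preparation and 0.25 nM [3H]prazosin are incubated with compound in 50 mM Tris-HCl (pH 7.4, 0.5 mM EDTA) at 25° C for 60 min. Activity is reported as percent inhibition.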

SMILES	Percentage inhibition of ligand binding, Adrenergic α2A [1] [%]	Percentage inhibition of ligand binding, Adrenergic α2B [2] [%]	Percentage inhibition of ligand binding, Adrenergic α1B [3] [%]	inhibition at 0.1 µM [3] [%]	inhibition at 0.1 µM [1] [%]	inhibition at 0.03 µM [2] [%]
Cc1ccc2c(c1)c1c(n2CC(O)c2cccnc2)CN(C)CC1 (single isomer, unassigned) [43a, 2-(2,6-dimethyl-1,2,3,4-tetrahydro-β-carbolin-9-yl)-1-pyridin-3-yl-ethanol]	9	51	33	–	–	–
Cc1ccc2c(c1)c1c(n2CC(O)c2cccnc2)CN(C)CC1 (single isomer, unassigned) [43b, 2-(2,6-dimethyl-1,2,3,4-tetrahydro-β-carbolin-9-yl)-1-pyridin-3-yl-ethanol]	13	27	46	–	–	–
COc1cccc2c3c(n(CC(O)c4ccncc4)c12)CCN(C)C3 (single isomer, unassigned) [44a, 2-(6-methoxy-2-methyl-3,4-dihydro-1H-pyrido[4,3-b]indol-5(2H)-yl)-1-(pyridin-4-yl)ethanol]	11	33	12	–	–	–
COc1cccc2c3c(n(CC(O)c4ccncc4)c12)CCN(C)C3 (single isomer, unassigned) [44b, 2-(6-methoxy-2-methyl-3,4-dihydro-1H-pyrido[4,3-b]indol-5(2H)-yl)-1-(pyridin-4-yl)ethanol]	1	75	18	–	–	–
CN1CCc2c(c3cccc(Cl)c3n2CC(O)c2ccncc2)C1 (single isomer, unassigned) [45a]	−4	54	–	23	–	–
CN1CCc2c(c3cccc(Cl)c3n2CC(O)c2ccncc2)C1 (single isomer, unassigned) [45b]	16	96	24	–	–	–
Cc1ccc2c(c1)c1c(n2CC(O)c2ccncc2)CCN2CCCCC12 (single isomer, unassigned) [47a]	10	40	58	–	–	–
Cc1ccc2c(c1)c1c(n2CC(O)c2ccncc2)CCN2CCCCC12 (single isomer, unassigned) [47b]	41	119	70	–	–	–
Cc1ccc2c(c1)c1c(n2CC(O)c2ccncc2)CCN2CCCCC12 (single isomer, unassigned) [47c]	4	53	6	–	–	–
Cc1ccc2c(c1)c1c(n2CC(O)c2ccncc2)CCN2CCCCC12 (single isomer, unassigned) [47d]	−3	30	5	–	–	–
CN1CCc2c(c3cccc(Br)c3n2CC(O)c2ccncc2)C1 (single isomer, unassigned) [48a]	–	58	–	16	12	–
CN1CCc2c(c3cccc(Br)c3n2CC(O)c2ccncc2)C1 (single isomer, unassigned) [48b]	17	86	14	–	–	–

Second part, the compound after the results:

Percentage inhibition of ligand binding, Adrenergic α2A [1] [%]	Percentage inhibition of ligand binding, Adrenergic α2B [2] [%]	Percentage inhibition of ligand binding, Adrenergic α1B [3] [%]	inhibition at 0.1 µM [3] [%]	inhibition at 0.1 µM [1] [%]	inhibition at 0.03 µM [2] [%]	SMILES
1	–	–	4	–	18	CC(=O)c1ccc2c(c1)c1c(n2CC(O)c2ccncc2)CCN(C)C1 (single isomer, unassigned) [49a, 1-(2,3,4,5-tetrahydro-5-(2-hydroxy-2-(pyridin-4-yl)ethyl)-2-methyl-1H-pyrido[4,3-b]indol-8-yl)ethanone]
6	19	5	–	–	–	CC(=O)c1ccc2c(c1)c1c(n2CC(O)c2ccncc2)CCN(C)C1 (single isomer, unassigned) [49b, 1-(2,3,4,5-tetrahydro-5-(2-hydroxy-2-(pyridin-4-yl)ethyl)-2-methyl-1H-pyrido[4,3-b]indol-8-yl)ethanone]
11	21	8	–	–	–	COc1ccc(C(O)Cn2c3c(c4cc(C)ccc42)CN(C)CC3)cn1 (single isomer, unassigned) [51a, 2-(2,8-dimethyl-1,2,3,4-tetrahydro-pyrido[4,3-b]indol-5-yl)-1-(6-methoxy-pyridin-3-yl)-ethanol]
26	90	36	–	–	–	COc1ccc(C(O)Cn2c3c(c4cc(C)ccc42)CN(C)CC3)cn1 (single isomer, unassigned) [51b, 2-(2,8-dimethyl-1,2,3,4-tetrahydro-pyrido[4,3-b]indol-5-yl)-1-(6-methoxy-pyridin-3-yl)-ethanol]
–	37	–	12	10	–	CN1CCc2c(c3ccc(Cl)cc3n2CC(O)c2ccncc2)C1 (single isomer, unassigned) [53a, 2-(7-chloro-2-methyl-3,4-dihydro-1H-pyrido[4,3-b]indol-5(2H)-yl)-1-(pyridin-4-yl)ethanol]
12	85	14	–	–	–	CN1CCc2c(c3ccc(Cl)cc3n2CC(O)c2ccncc2)C1 (single isomer, unassigned) [53b, 2-(7-chloro-2-methyl-3,4-dihydro-1H-pyrido[4,3-b]indol-5(2H)-yl)-1-(pyridin-4-yl)ethanol]
30	–	39	–	–	105	Cc1ccc2c(c1)c1c(n2CC(OC(=O)C(C)C)c2ccncc2)CCN(C)C1 (single isomer, unassigned) [54a, 2-(1,2,3,4-tetrahydro-2,8-dimethylpyrido[4,3-b]indol-5-yl)-1-(pyridin-4-yl)ethyl isobutyrate]
66	106	71	–	–	–	Cc1ccc2c(c1)c1c(n2CC(OC(=O)C(C)C)c2ccncc2)CCN(C)C1 (single isomer, unassigned) [54b, 2-(1,2,3,4-tetrahydro-2,8-dimethylpyrido[4,3-b]indol-5-yl)-1-(pyridin-4-yl)ethyl isobutyrate]
